Measurements published in patent US20260199305A1, “LONG-ACTING ORAL PHARMACEUTICAL COMPRISING HYPOXIA-INDUCIBLE FACTOR PROLYL HYDROLASE INHIBITOR AND USE THEREOF” (Kind Pharmaceutical, priority 2023, published 2026).

Experiments:
[1] = test system: Normal Rats; experiment: Hemoglobin increase in normal rats, oral tiw vs qw for 4 weeks; assay type: in vivo, SD rats; set-up: Hemoglobin D0 / Hemoglobin D14: unit not given here; conditions: for Hemoglobin D0 / Hemoglobin D7 / Hemoglobin D14 / Hemoglobin D21 / Hemoglobin D28: oral; for Hemoglobin D0: day 0; for Hemoglobin D7: day 7; for Hemoglobin D14: day 14; for Hemoglobin D21: day 21; for Hemoglobin D28: day 28
Description: A total of 70 male SD rats, approximately 7 weeks old, were acclimated to the experimental environment for 10 days before the start of the experiment. Throughout the experiment, animals were housed in cages (5 rats per cage) in a conventional animal room with 24-hour continuous central air conditioning, temperature set at 24° C., and a 12-hour light/dark cycle. All rats had free access to food (dry pelleted food) and purified drinking water. The animals were randomly divided into 8 groups: the vehicle tiw group and vehicle qw group each contained 5 rats; Comp-1 3 mpk tiw, 6 mpk tiw, 10 mpk tiw, 9 mpk qw, 18 mpk qw, and 30 mpk qw, each contained 10 rats (mpk=mg/kg). The vehicle was 1 M aqueous meglumine solution. Each rat received oral gavage of the vehicle or the corresponding weight of Comp-1 vehicle solution according to its body weight and group assignment (tiw, qw) for a total of 4 weeks. Blood samples were collected from each rat on days 0, 7, 14, 21, and 28 to measure hemoglobin values (HGB, Hb). After tail snip blood collection, hemoglobin values were measured and read using a hemoglobin detector (HemoCue Hb 201+, produced by Radiometer). Quantitative data results were analyzed statistically using one-way analysis of variance (ANOVA) between groups, followed by Dunnett's multiple comparison method. Two-tailed analysis was used for statistics, and the statistical significance level was set at P<0.05.

[2] = Elimination half-life in rats after single oral gavage; assay type: in vivo; conditions: SD, rat, plasma
Description: Preparation of Single-Dose Oral Formulation: 25.3800 g of meglumine (Sigma) was weighed and dissolved in 80 mL of deionized water. The resulting mixture was stirred for 35 minutes and the volume was made up to 130 mL to obtain a 1M meglumine solution. 4.31 mg, 13.54 mg, and 40.59 mg of Comp-1 were weighed separately and then added to 28.676 mL, 27 mL, and 27 mL of the 1M meglumine solution respectively. The resulting mixtures each was stirred for 31 minutes and sonicated for 5 minutes to obtain colorless transparent solutions with Comp-1 concentrations of 0.15 mg/mL, 0.5 mg/mL, and 1.5 mg/mL, respectively.
18 SD rats (half male, half female) were randomly divided into 3 groups (3 males and 3 females per group). Comp-1 was administered by oral gavage at doses of 1.5, 5.0, and 15.0 mg/kg. Blood samples were collected before administration and at 0.25, 0.5, 1, 2, 4, 6, 8, 24, 48, and 72 hours after administration. The oral vehicle was a 1 M meglumine solution in deionized water, and the administration volume was 10 mL/kg for all doses. All collected plasma samples were stored at −75±15° C. until analysis. The concentration of Comp-1 in SD rat plasma was determined using liquid chromatography-tandem mass spectrometry with Tolbutamide as an internal standard. The mass spectrometer utilized an electrospray ionization source operating in positive ion mode. The precursor-to-product ion transitions monitored were m/z 381.2→306.3 for Comp-1 and m/z 270.9->155.0 for Tolbutamide. Pharmacokinetic parameters of Comp-1 were calculated by software Phoenix™ WinNonlin version 6.1 using a non-compartmental model. Pharmacokinetic data were calculated using a linear log trapezoidal method with a weighting of 1/Y*Y. Samples with concentrations below the lower limit of quantification were not included in the calculation of pharmacokinetic parameters. Microsoft Excel 2010 was used to calculate the mean values of various parameters, with the mean determined from the pharmacokinetic parameters of each animal. The mean elimination half-lives of Comp-1 in male rats at the doses of 1.5, 5.0, and 15.0 mg/kg were: 6.72 hours, 15.0 hours, and 10.2 hours, respectively. The mean elimination half-lives of Comp-1 in female rats at the doses of 1.5, 5.0, and 15.0 mg/kg were: 12.9 hours, 5.72 hours, and 24.9 hours, respectively.

[3] = biological target: T1, HIF PHD-2 (Homo sapiens, UniProt Q9GZT9); experiment: Inhibitory effect on HIF PHD-2 (HIF-1α peptide hydroxylation, HPLC); assay type: biochemical; conditions: PHD2 enzyme, 30° C., 2 hours, read-out: IC50 against HIF PHD-2
T1 construct: purchased Active Motif
Description: Stock solutions of the following reagents were prepared: HEPES buffer (pH 7.4, 50 mM), HIF-1α peptide (sequence: DLDLEMLAPYIPMDDDFQL; Genscript) solution in DMSO/HEPES (0.5 mM; preparation method: first prepare a 20 mM solution of this peptide in DMSO, then dilute it 40-fold with the HEPES buffer), ascorbic acid solution (10 mM), FeSO4 in hydrochloric acid solution (0.1 mM FeSO4, 10 μM HCl), 2-oxoglutaric acid solution (2-OG: 1 mM), EDTA solution (pH 8.0; 0.5 M), and eight concentrations of Comp-1/DMSO solutions (concentrations: 4000 μM, 1333 μM, 444.4 μM, 148.1 μM, 49.4 μM, 16.5 μM, 5.5 μM, and 1.82 μM). The following reagents were added to nine Eppendorf tubes: 50 μL HEPES solution, 10 μL ascorbic acid solution, 10 μL FeSO4 in HCl solution, 10 μL 2-OG solution, 10 μL HIF-1α peptide solution; then 5 μL of each of the eight Comp-1/DMSO solutions and 5 μL of DMSO were added separately; finally, 5 μL of PHD2 enzyme (Active Motif; concentration: 0.2 μg/μL) was added to each tube. Each of the resulting reaction systems was incubated at 30° C. in dark for 2 hours. Finally, 10 μL of EDTA solution was added to each tube to terminate the reaction. […] The concentrations of HIF-peptide and hydroxylated peptide were quantified using a UV absorption detector to calculate their ratio. The IC50 was calculated using GraphPad Prism 6.0 software.

T1 sequence (Q9GZT9 whole entry): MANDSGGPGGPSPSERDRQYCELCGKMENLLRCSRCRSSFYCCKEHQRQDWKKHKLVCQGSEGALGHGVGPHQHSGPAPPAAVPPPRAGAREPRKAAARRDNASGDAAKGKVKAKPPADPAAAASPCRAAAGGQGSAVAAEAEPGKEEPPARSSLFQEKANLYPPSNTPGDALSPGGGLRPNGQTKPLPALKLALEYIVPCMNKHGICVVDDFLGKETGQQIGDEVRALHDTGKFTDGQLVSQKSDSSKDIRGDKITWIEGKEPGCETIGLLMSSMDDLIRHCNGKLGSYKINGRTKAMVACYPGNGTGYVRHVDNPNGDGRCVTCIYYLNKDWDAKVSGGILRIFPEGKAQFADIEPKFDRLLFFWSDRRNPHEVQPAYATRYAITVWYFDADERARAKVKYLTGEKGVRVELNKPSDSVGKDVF

For O=C(O)CNC(=O)C1=C(O)C2(CCCC2)n2c(ccc2-c2ccccc2)C1=O [Comp-1, (6′-hydroxy-8′-oxo-3′-phenyl-8′H-spiro[cyclopentane-1,5′-indolizine]-7′-carbonyl)glycine], the “Hemoglobin D0” value ([1]; 3 mg/kg, tiw) was 16.42 ± 0.74, the “Hemoglobin D7” value ([1]; 3 mg/kg, tiw) was 18.32 ± 0.70 and the “Hemoglobin D14” value ([1]; 3 mg/kg, tiw) was 19.06 ± 0.81. For the same molecule, the “Hemoglobin D21” value ([1]; 3 mg/kg, tiw) was 18.09 ± 0.57, the “Hemoglobin D28” value ([1]; 3 mg/kg, tiw) was 18.97 ± 0.56 and the “Hemoglobin D0” value ([1]; 6 mg/kg, tiw) was 17.4 ± 1.07. For the same molecule, the “Hemoglobin D7” value ([1]; 6 mg/kg, tiw) was 18.76 ± 0.76, the “Hemoglobin D14” value ([1]; 6 mg/kg, tiw) was 20.15 ± 0.58 and the “Hemoglobin D21” value ([1]; 6 mg/kg, tiw) was 19.49 ± 0.82. The “Hemoglobin D28” value ([1]; 6 mg/kg, tiw) was 21.26 ± 1.08, the “Hemoglobin D0” value ([1]; 9 mg/kg, qw) was 16.96 ± 0.82 and the “Hemoglobin D7” value ([1]; 9 mg/kg, qw) was 17.57 ± 1.07. For the same molecule, the “Hemoglobin D14” value ([1]; 9 mg/kg, qw) was 17.77 ± 2.01, the “Hemoglobin D21” value ([1]; 9 mg/kg, qw) was 17.73 ± 1.15 and the “Hemoglobin D28” value ([1]; 9 mg/kg, qw) was 19.09 ± 1.44. For the same molecule, the “Hemoglobin D0” value ([1]; 10 mg/kg, tiw) was 17.74 ± 1.06, the “Hemoglobin D7” value ([1]; 10 mg/kg, tiw) was 19.21 ± 0.71 and the “Hemoglobin D14” value ([1]; 10 mg/kg, tiw) was 21.83 ± 1.18. The “Hemoglobin D21” value ([1]; 10 mg/kg, tiw) was 22.12 ± 1.40, the “Hemoglobin D28” value ([1]; 10 mg/kg, tiw) was 23.69 ± 1.31 and the “Hemoglobin D0” value ([1]; 18 mg/kg, qw) was 17.2 ± 1.00. For the same molecule, the “Hemoglobin D7” value ([1]; 18 mg/kg, qw) was 17.95 ± 0.88, the “Hemoglobin D14” value ([1]; 18 mg/kg, qw) was 18.57 ± 0.76 and the “Hemoglobin D21” value ([1]; 18 mg/kg, qw, in g/dL) was 18.72 ± 0.92. The “Hemoglobin D28” value ([1]; 18 mg/kg, qw) was 18.99 ± 1.23, the “Hemoglobin D0” value ([1]; 30 mg/kg, qw) was 17.13 ± 1.17 and the “Hemoglobin D7” value ([1]; 30 mg/kg, qw, in g/dL) was 19.33 ± 0.56. For the same molecule, the “Hemoglobin D14” value ([1]; 30 mg/kg, qw) was 19.44 ± 1.07, the “Hemoglobin D21” value ([1]; 30 mg/kg, qw, in g/dL) was 20.04 ± 0.93 and the “Hemoglobin D28” value ([1]; 30 mg/kg, qw, in g/dL) was 20.62 ± 0.76. For the same molecule, the “hemoglobin levels compared with vehicle once weekly (qw)” value ([1]; day 28, the three once weekly (qw) groups) was “statistically significantly increased”, the half-life ([2]; female rats, 1.5 mg/kg oral gavage) was 12.9 h and the half-life ([2]; female rats, 5.0 mg/kg oral gavage) was 5.72 h. For the same molecule, the half-life ([2]; female rats, 15.0 mg/kg oral gavage) was 24.9 h, the half-life ([2]; male rats, 1.5 mg/kg oral gavage) was 6.72 h and the half-life ([2]; male rats, 5.0 mg/kg oral gavage) was 15 h. For the same molecule, the half-life ([2]; male rats, 15.0 mg/kg oral gavage) was 10.2 h and the IC50 [3] was 2360 nM.
